According to US9839594B2, “Skin-moisturising or wrinkle-improving external composition and cosmetic composition” (KOREA INSTITUTE OF ORIENTAL MEDICINE, priority 2012, dated 2017):

What was measured:
Assay type in all cases: in vivo, hairless mice (male HR-1)
[1] = system: back skin tissues of hairless mice; test: Histological observation of skin (H&E and Masson's trichome staining); details: 0.25% (w/v) topical, 12 weeks, UVB irradiation
Experimental: (§1) 7-week old male hairless mice (male HR-1, hairless mice, Japan SLC, Inc.), the experimental animals, were purchased from Central Lab. Animal Inc (Seoul, Korea). and used after an adaption period of a week. Only healthy animals were used in the experiments by observing general conditions during the adaption period. The breeding environment was maintained at 23±3° C. with 50±5% humidity with a light-dark cycle of 12 hours (7:00-19:00/lighting time). During the experiments, seven experimental animals per each experimental group were raised in a polycarbonate cage (200×320×145 mm, Three-shine Co., Daejeon, Korea), and the animals were given both mouse feed 5L79 (Charles river, USA) and tap water for drinking sterilized with UV rays to be consumed freely.
The experiments were carried out on the following groups: a control group (Con), a UV-treated group (UV), an excipient-treated group (Vehicle), and a group treated by the compound represented by Formula 1 (TM), and the samples were administered thereto. The sample administration was performed for 12 weeks in total by spreading the samples onto skins. For the compound treated group (TM), the compound was dissolved in dimethyl sulfoxide (DMSO), and subsequently in a mixed solution containing propylene glycol, ethanol, and poly ethylene glycol with a 1:1:1 ratio, and the dissolved formulation (the final concentration of the compound was 0.25% (w/v)) was applied to skins with the amount of 40 uL per 6 cm^2 once a day for 5 days a week. The excipient-treated group (Vehicle) were treated in the same manner as the compound treated group (TM), except the compound omitted.
(§2) Ultraviolet irradiation was performed on the experimental groups except for the control group using a UVB lamp (Mineralight UV Display lamp, UVP, USA) three times a week for 8 weeks. […] The UV irradiance was measured by a radiometry instrument (Delta OHM, Italy), and then, was adjusted according to irradiation time. […]

[2] = system: back skins of hairless mice; test: Transepidermal water loss (TEWL) analysis; details: 0.25% (w/v) topical, 12 weeks; UVB irradiation; Tewameter at 23° C., relative humidity 50%; p<0.01
Experimental: 7-week old male hairless mice (male HR-1, hairless mice, Japan SLC, Inc.), the experimental animals, were purchased from Central Lab. Animal Inc (Seoul, Korea). and used after an adaption period of a week. Only healthy animals were used in the experiments by observing general conditions during the adaption period. The breeding environment was maintained at 23±3° C. with 50±5% humidity with a light-dark cycle of 12 hours (7:00-19:00/lighting time). […]
(§3) Ultraviolet irradiation was performed on the experimental groups except for the control group using a UVB lamp (Mineralight UV Display lamp, UVP, USA) three times a week for 8 weeks. […] The UV irradiance was measured by a radiometry instrument (Delta OHM, Italy), and then, was adjusted according to irradiation time.
To confirm the skin-moisturizing effect, the transepidermal water loss analysis was carried out with back skins of hairless mice in each experimental group. The transepidermal water loss level refers to the water quantity diffused from a skin, and if the level is high, it would mean that the skin moisturizing function is weakened, and that the function of innate skin barrier is damaged. […] The evaporated water quantity was then measured using Tewameter, and the skin moisturizing-ability was calculated.

skins of hairless mice = test: Skin wrinkle measurement with silicone skin replica of back skin of UV-irradiated hairless mice; details: 12 weeks
Experimental: as §1
The experiments were carried out on the following groups: a control group (Con), a UV-treated group (UV), an excipient-treated group (Vehicle), and a group treated by the compound represented by Formula 1 (TM), and the samples were administered thereto. The sample administration was performed for 12 weeks in total by spreading the samples onto skins. […]
as §3
The degree of wrinkle formation was measured with a silicone skin replica of the back skins of the hairless mice of each experimental group. […] A shadow image, generated according to the thickness of the skin replica, was filed using a CCD camera, and the depth and length of wrinkles were measured using the Skin Visiometer VL 650 software, which is a computer image analysis system. […]

[3] = system: back skin tissues of hairless mice; test: Epidermis thickness measured in H&E-stained tissues; details: 0.25% (w/v) topical, 12 weeks; UVB irradiation; p<0.05
Experimental: as §1, with “freely. […]” for “freely.”
as §2
The epidermis thickness was measured from the keratin layer to the epidermal basement membrane of tissues, which were stained with H&E in Experimental Example 3), by a ruler installed in a microscope, and the result is shown in FIG. 6.

[4] = compared to UV-treated group and excipient-treated group

## C[C@H]1CCC2(OC1)OC1CC3C4CC[C@@H]5CC(OC6OC(CO)C(O)C(O)C6OC6OC(CO)C(O)C(O)C6O)CC[C@]5(C)C4CC[C@]3(C)C1[C@@H]2C (some centres unmarked) [compound represented by Formula 1]
[1]; compared to UV-treated group
  collagen fibers (Masson's trichome staining, FIG. 5): collagen fibers were increased
[1]; [4]
  cornified layers (H&E staining, FIG. 4): cornified layers were alleviated
  epidermis (H&E staining, observed, FIG. 4): thinner epidermises were observed
[2]
  skin water loss induced by UV rays (transepidermal water loss, FIG. 7): significantly prevented
Skins of hairless mice; 0.25% (w/v) spread onto skin, 40 uL per 6 cm^2 once a day 5 days a week, UVB irradiation 8 weeks, compared to UV-treated group
  degree of skin-wrinkle formation (skin replica image, FIG. 1): thick wrinkles were alleviated
Skins of hairless mice; 0.25% (w/v) topical, UVB irradiation, compared to UV group and excipient-treated group (Vehicle), p<0.0001
  mean wrinkle length (FIG. 2): significantly reduced
Skins of hairless mice; 0.25% (w/v) topical, UVB irradiation, compared to UV-treated group, p<0.0001
  mean wrinkle depth (FIG. 3): significantly reduced
[3]
  epidermis thickness (keratin layer to epidermal basement membrane, FIG. 6): significantly reduced
